Patent US12077503B2, “Substituted cyclic amides and their use as herbicides” (FMC CORPORATION, priority 2015, dated 2024)

Assays:
Assay type in all cases: in vivo
[1] = system: velvetleaf (Abutilon theophrasti); test: Test G Post-Emergence Protocol; conditions: Abutilon theophrasti, post-emergence, 312 h; for pest or weed control at 15.625 g/ha: 15.625 g ai/ha, evaluated after 13 days (100=total damage to plant; 0=no damage to plant), read-out: Velvetleaf damage rating; for pest or weed control at 62.5 g/ha: 62.5 g ai/ha, read-out: Velvetleaf damage rating (100=total damage to plant; 0=no damage to plant); for pest or weed control at 62.5 g/ha / pest or weed control at 250 g/ha: evaluated after 13 days; for pest or weed control at 250 g/ha: 250 g ai/ha, read-out: damage to plant, Velvetleaf (100=total damage to plant; 0=no damage to plant)
Outline: (§1)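 Damage was rated 13 days after treatment from 0 (none) to 100 (plant killed). Compound was applied as a spray at 15.625, 62.5 or 250 g/ha in 50:50 acetone/water containing 0.5% Tween 20, onto 8-day-old potted plants kept in a glasshouse (24/16 °C, 14 h light, 65% humidity).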

[2] = system: ivy-leaved morning glory (Ipomoea hederacea); test: Test G Post-Emergence Protocol; conditions: Ipomoea, post-emergence, 312 h; for pest or weed control at 15.625 g/ha: 15.625 g ai/ha, evaluated after 13 days (100=total damage to plant; 0=no damage to plant), read-out: Morningglory, Ivy-leaved damage rating; for pest or weed control at 62.5 g/ha: 62.5 g ai/ha, read-out: Morningglory, Ivy-leaved damage rating (100=total damage to plant; 0=no damage to plant); for pest or weed control at 62.5 g/ha / pest or weed control at 250 g/ha: evaluated after 13 days; for pest or weed control at 250 g/ha: 250 g ai/ha, read-out: damage to plant, Morningglory, Ivy-leaved (100=total damage to plant; 0=no damage to plant)
Outline: as §1

corn (Zea mays) [3] = test: Test G Post-Emergence Protocol; conditions: Zea mays, post-emergence, 312 h; for plant injury at 15.625 g/ha: 15.625 g ai/ha, evaluated after 13 days (100=total damage to plant; 0=no damage to plant), read-out: Corn damage rating; for plant injury at 62.5 g/ha: 62.5 g ai/ha, read-out: Corn damage rating (100=total damage to plant; 0=no damage to plant); for plant injury at 62.5 g/ha / plant injury at 250 g/ha: evaluated after 13 days; for plant injury at 250 g/ha: 250 g ai/ha, read-out: damage to plant, Corn (100=total damage to plant; 0=no damage to plant)
Outline: as §1

[4] = system: redroot pigweed (Amaranthus retroflexus); test: Test G Post-Emergence Protocol; conditions: Amaranthus retroflexus, post-emergence, 312 h; for pest or weed control at 15.625 g/ha: 15.625 g ai/ha, evaluated after 13 days (100=total damage to plant; 0=no damage to plant), read-out: Pigweed, Redroot damage rating; for pest or weed control at 62.5 g/ha: 62.5 g ai/ha, read-out: Pigweed, Redroot damage rating (100=total damage to plant; 0=no damage to plant); for pest or weed control at 62.5 g/ha / pest or weed control at 250 g/ha: evaluated after 13 days; for pest or weed control at 250 g/ha: 250 g ai/ha, read-out: damage to plant, Pigweed, Redroot (100=total damage to plant; 0=no damage to plant)
Outline: as §1

[5] = system: barnyardgrass (Echinochloa crus-galli); test: Test G Post-Emergence Protocol; conditions: Echinochloa crus-galli, post-emergence, 312 h; for pest or weed control at 15.625 g/ha: 15.625 g ai/ha, evaluated after 13 days (100=total damage to plant; 0=no damage to plant), read-out: Barnyardgrass damage rating; for pest or weed control at 62.5 g/ha: 62.5 g ai/ha, read-out: Barnyardgrass damage rating (100=total damage to plant; 0=no damage to plant); for pest or weed control at 62.5 g/ha / pest or weed control at 250 g/ha: evaluated after 13 days; for pest or weed control at 250 g/ha: 250 g ai/ha, read-out: damage to plant, Barnyardgrass (100=total damage to plant; 0=no damage to plant)
Outline: as §1

[6] = system: giant foxtail (Setaria faberi); test: Test G Post-Emergence Protocol; conditions: Setaria faberi, post-emergence, 312 h; for pest or weed control at 15.625 g/ha: 15.625 g ai/ha, evaluated after 13 days (100=total damage to plant; 0=no damage to plant), read-out: Foxtail, Giant damage rating; for pest or weed control at 62.5 g/ha: 62.5 g ai/ha, read-out: Foxtail, Giant damage rating (100=total damage to plant; 0=no damage to plant); for pest or weed control at 62.5 g/ha / pest or weed control at 250 g/ha: evaluated after 13 days; for pest or weed control at 250 g/ha: 250 g ai/ha, read-out: damage to plant, Foxtail, Giant (100=total damage to plant; 0=no damage to plant)
Outline: as §1

[7] = system: velvetleaf (Abutilon theophrasti); test: Test G Pre-Emergence Protocol; conditions: Abutilon theophrasti, pre-emergence, 312 h, evaluated after 13 days; for pest or weed control at 15.625 g/ha: 15.625 g ai/ha; for pest or weed control at 15.625 g/ha / pest or weed control at 250 g/ha: read-out: Velvetleaf damage rating (100=total damage to plant; 0=no damage to plant); for pest or weed control at 62.5 g/ha: 62.5 g ai/ha, 100=total damage to plant, 0=no damage to plant, read-out: plant damage rating, Velvetleaf; for pest or weed control at 250 g/ha: 250 g ai/ha
Outline: (§2)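 Spraying took place one day after sowing, at 15.625, 62.5 or 250 g/ha, using an acetone/water (50:50) spray solution containing 0.5% Tween 20. Plants were kept under glasshouse conditions (24/16 °C, 14 h light, 65% humidity, watered twice daily), and injury was rated 0–100 at day 13.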

[8] = system: ivy-leaved morning glory (Ipomoea hederacea); test: Test G Pre-Emergence Protocol; conditions: Ipomoea, pre-emergence, 312 h, evaluated after 13 days; for pest or weed control at 15.625 g/ha: 15.625 g ai/ha, read-out: Morning-glory, Ivy-leaved damage rating (100=total damage to plant; 0=no damage to plant); for pest or weed control at 62.5 g/ha: 62.5 g ai/ha, 100=total damage to plant, 0=no damage to plant, read-out: plant damage rating, Morningglory, Ivy-leaved; for pest or weed control at 250 g/ha: 250 g ai/ha, read-out: Morningglory, Ivy-leaved damage rating (100=total damage to plant; 0=no damage to plant)
Outline: as §2

corn (Zea mays) [9] = test: Test G Pre-Emergence Protocol; conditions: Zea mays, pre-emergence, 312 h, evaluated after 13 days; for plant injury at 15.625 g/ha: 15.625 g ai/ha; for plant injury at 15.625 g/ha / plant injury at 250 g/ha: read-out: Corn damage rating (100=total damage to plant; 0=no damage to plant); for plant injury at 62.5 g/ha: 62.5 g ai/ha, 100=total damage to plant, 0=no damage to plant, read-out: plant damage rating, Corn; for plant injury at 250 g/ha: 250 g ai/ha
Outline: as §2

[10] = system: redroot pigweed (Amaranthus retroflexus); test: Test G Pre-Emergence Protocol; conditions: Amaranthus retroflexus, pre-emergence, 312 h, evaluated after 13 days; for pest or weed control at 15.625 g/ha: 15.625 g ai/ha; for pest or weed control at 15.625 g/ha / pest or weed control at 250 g/ha: read-out: Pigweed, Redroot damage rating (100=total damage to plant; 0=no damage to plant); for pest or weed control at 62.5 g/ha: 62.5 g ai/ha, 100=total damage to plant, 0=no damage to plant, read-out: plant damage rating, Pigweed, Redroot; for pest or weed control at 250 g/ha: 250 g ai/ha
Outline: as §2

[11] = system: barnyardgrass (Echinochloa crus-galli); test: Test G Pre-Emergence Protocol; conditions: Echinochloa crus-galli, pre-emergence, 312 h, evaluated after 13 days; for pest or weed control at 15.625 g/ha: 15.625 g ai/ha, read-out: Barnyard grass damage rating (100=total damage to plant; 0=no damage to plant); for pest or weed control at 62.5 g/ha: 62.5 g ai/ha, 100=total damage to plant, 0=no damage to plant, read-out: plant damage rating, Barnyardgrass; for pest or weed control at 250 g/ha: 250 g ai/ha, read-out: Barnyardgrass damage rating (100=total damage to plant; 0=no damage to plant)
Outline: as §2

[12] = system: giant foxtail (Setaria faberi); test: Test G Pre-Emergence Protocol; conditions: Setaria faberi, pre-emergence, 312 h, evaluated after 13 days; for pest or weed control at 15.625 g/ha: 15.625 g ai/ha; for pest or weed control at 15.625 g/ha / pest or weed control at 250 g/ha: read-out: Foxtail, Giant damage rating (100=total damage to plant; 0=no damage to plant); for pest or weed control at 62.5 g/ha: 62.5 g ai/ha, 100=total damage to plant, 0=no damage to plant, read-out: plant damage rating, Foxtail, Giant; for pest or weed control at 250 g/ha: 250 g ai/ha
Outline: as §2

Compound | pest or weed control at 15.625 g/ha [1] | pest or weed control at 62.5 g/ha [1] | pest or weed control at 250 g/ha [1] | pest or weed control at 15.625 g/ha [2] | pest or weed control at 62.5 g/ha [2] | pest or weed control at 250 g/ha [2] | plant injury at 15.625 g/ha (corn (Zea mays) [3]) | plant injury at 62.5 g/ha (corn (Zea mays) [3]) | plant injury at 250 g/ha (corn (Zea mays) [3]) | pest or weed control at 15.625 g/ha [4] | pest or weed control at 62.5 g/ha [4] | pest or weed control at 250 g/ha [4] | pest or weed control at 15.625 g/ha [5] | pest or weed control at 62.5 g/ha [5] | pest or weed control at 250 g/ha [5] | pest or weed control at 15.625 g/ha [6] | pest or weed control at 62.5 g/ha [6] | pest or weed control at 250 g/ha [6] | pest or weed control at 15.625 g/ha [7] | pest or weed control at 62.5 g/ha [7] | further results
Cc1nccc(NC(=O)[C@@H]2C(=O)N(C)C[C@H]2c2ccc(C(F)(F)F)cc2)c1C (racemic) [Compound 1630] | 0% | 0% | 0% | 0% | 0% | 0% | 0% | 0% | 0% | 0% | 0% | 0% | 0% | 0% | 0% | 0% | 0% | 0% | 0% | 0% | pest or weed control at 250 g/ha [7]: 0%; pest or weed control at 15.625 g/ha [8]: 0%; pest or weed control at 62.5 g/ha [8]: 0%; pest or weed control at 250 g/ha [8]: 0%; plant injury at 15.625 g/ha (corn (Zea mays) [9]): 0%; plant injury at 62.5 g/ha (corn (Zea mays) [9]): 0%; plant injury at 250 g/ha (corn (Zea mays) [9]): 0%; pest or weed control at 15.625 g/ha [10]: 0%; pest or weed control at 62.5 g/ha [10]: 0%; pest or weed control at 250 g/ha [10]: 0%; pest or weed control at 15.625 g/ha [11]: 0%; pest or weed control at 62.5 g/ha [11]: 0%; pest or weed control at 250 g/ha [11]: 0%; pest or weed control at 15.625 g/ha [12]: 0%; pest or weed control at 62.5 g/ha [12]: 0%; pest or weed control at 250 g/ha [12]: 0%
Cc1n[nH]cc1NC(=O)[C@@H]1C(=O)N(C)C[C@H]1c1ccc(C(F)(F)F)cc1 (racemic) [Compound 1634] | 0% | 0% | 0% | 0% | 0% | 0% | 0% | 0% | 0% | 0% | 0% | 0% | 0% | 0% | 0% | 0% | 0% | 20% | 0% | 0% | pest or weed control at 250 g/ha [7]: 0%; pest or weed control at 15.625 g/ha [8]: 0%; pest or weed control at 62.5 g/ha [8]: 0%; pest or weed control at 250 g/ha [8]: 0%; plant injury at 15.625 g/ha (corn (Zea mays) [9]): 0%; plant injury at 62.5 g/ha (corn (Zea mays) [9]): 0%; plant injury at 250 g/ha (corn (Zea mays) [9]): 0%; pest or weed control at 15.625 g/ha [10]: 0%; pest or weed control at 62.5 g/ha [10]: 0%; pest or weed control at 250 g/ha [10]: 0%; pest or weed control at 15.625 g/ha [11]: 0%; pest or weed control at 62.5 g/ha [11]: 0%; pest or weed control at 250 g/ha [11]: 0%; pest or weed control at 15.625 g/ha [12]: 0%; pest or weed control at 62.5 g/ha [12]: 0%; pest or weed control at 250 g/ha [12]: 0%
